Laboratory results taken from a melting point compilation (Tetko et al.; mined from patent text by program, amines drawn as free bases though some values may be those of a salt).

Row | melting point [°C] | SMILES
1 | 225 to 227 | c1ccc2c(c1)OCC(c1ncc[nH]1)O2 (configuration not stated)
2 | 102 to 104 | FC1(F)Oc2ccc(C=Cc3nc(CNc4ccc(CCCCn5ccnn5)cc4)co3)cc2O1
3 | 70 to 71 | CCOC(=O)c1[nH]c(C)c(C)c1OCC1CO1 (configuration not stated)
4 | 210 to 211 | COC(=O)c1cccc2c(C#N)c(OC)ccc12
5 | 194 to 195 | Cc1ccc(C(=O)Nc2ccc(C=O)c(C(F)(F)F)c2)cc1Br
6 | 170 | COC(=O)c1ccc(C=Cc2ccc(OC)cc2)nc1
7 | 189 to 192 | NC(=O)c1nnn(Cc2ccc(Cl)c(C(=O)c3ccc(Cl)cc3)c2)c1N
8 | 132 to 133 | NS(=O)(=O)c1ccccc1OCC1CO1 (configuration not stated)
9 | 174 | NC(=O)C1=C(S(=O)Cc2ccccc2)CCC1 (configuration not stated)
10 | 119 to 121 | Cc1cccc(C2CNCCN2C(=O)N(c2ccccc2)c2ccccc2)c1 (configuration not stated)
11 | 143 to 144 | CCOC(=O)CN1C(=O)Nc2cccc(Cl)c2C1C (configuration not stated)
12 | 143 to 145 | O=C1c2ccccc2C(O)N1CCO[N+](=O)[O-] (configuration not stated)
13 | 212 to 213 | Cc1c(C=NO)c2cc(Cl)ccc2n1-c1ccc(O)cc1
14 | 200 | O=C1Nc2cccnc2N(C(=O)N2CCC(CCCN3CCCCC3)CC2)c2ccccc21
15 | 121 to 124 | c1ccc(-c2nc(-c3ccc4c(c3)OCO4)sc2-c2ccccc2)cc1
16 | 187 to 188 | Cc1oc(-c2ccccc2)nc1COc1ccc(COc2ccc3ccccc3c2CC(=O)O)cc1
17 | 190 to 193 | CCc1ccc(C(=O)O)c(O)n1
18 | 110 to 112 | COC(=S)C(C)=CNc1ccc(OC)c(Cl)c1
19 | 160 to 163 | CCCCCCN(C[C@H]1CC[C@H](CN(CCCCCC)C(=O)Nc2ccc(N(C)C)cc2)CC1)C(=O)Nc1ccc(N(C)C)cc1
20 | 61 to 63 | COC(=O)c1cc(CCNC(=O)C(F)(F)F)ccc1OC
21 | 148 to 149 | CCCCCC(CC(=O)NO)C(=O)NC(C(=O)N1CCCC1CO)C(C)C (configuration not stated)
22 | 73 to 75 | O=C(Cl)CCS(=O)(=O)CCCl
23 | 105 to 106 | CC(C)c1cc(C(=O)O)oc1C(C)C
24 | 268 to 270 | C=C=CC(=O)Nc1ccc2ncnc(Nc3cccc(Br)c3)c2c1
25 | 133 to 135 | COC(=O)CNC(=O)Nc1cc(F)ccc1[N+](=O)[O-]

Row | melting point [°C] | SMILES
26 | 138 to 140 | O=C1C=CC(=O)N1c1cccc(Oc2cccc(Oc3cccc(N4C(=O)C=CC4=O)c3)c2)c1
27 | 39 to 42 | COc1cc(C)cc(OCCCSCCC(=O)O)c1
28 | 119 to 122 | Cc1nc(N2CCc3ccccc3CC2)c(C#N)c(=O)n1CC1CC1
29 | 117 to 119 | ON=C1CCCCCCC1Cc1ccccc1 (configuration not stated)
30 | 223 to 224 | Cc1ccc(NC(=O)N2CCc3cc(S(=O)(=O)N4CC(c5ccccc5)NC4=O)ccc32)cc1 (configuration not stated)
31 | 257 | Cc1nc(NC(=O)c2cnn3c(C(F)(F)F)cc(-c4ccc(C(F)(F)F)cc4)nc23)sc1S(=O)(=O)NC(C)(C)CO
32 | 170 to 172 | O=[N+]([O-])c1cnccc1Nn1ccc2ccccc21
33 | 167 to 170 | CCCCc1nn(-c2cc(N)ccc2Cl)c(=O)n1Cc1ccc(-c2ccccc2S(=O)(=O)NC(C)(C)C)cc1F
34 | 140 to 145 | O=C(c1cc(N2CCCC(F)(F)C2)ccn1)N(O)Cc1ccccc1
35 | 138 | Cc1nc(-c2ccc3c(c2)COC(N[C@@H]2CCc4ccccc42)=N3)no1
36 | 91.3 to 93.6 | OCCCc1ccc(OCC2CCCO2)cc1Oc1ncc(C(F)(F)F)cc1Cl (configuration not stated)
37 | 205 to 208 | CCOC(=O)c1c(N)c2cccnc2n(CC)c1=O
38 | 208 to 209 | CON=C(C(=O)Nc1ccc(C(=O)O)cc1)c1ccc2c(c1)C(C)(C)CCC2(C)C
39 | 194 to 197 | Cc1nc(C)c(Cl)c(NCc2cccc(O)c2)n1
40 | 77 to 79 | CCC(O)Cn1cc(-c2cccc(C(F)(F)F)c2)cn1 (configuration not stated)
41 | 38 to 39.5 | Cc1cc(CCCCCOc2c(Cl)cc(C3=NCCO3)cc2Cl)sn1
42 | 155 | COC(=O)COC1C(O)C(CO)OC(Oc2ccc(N)cc2)C1O (configuration not stated)
43 | 162 to 164 | CC1(C)Oc2ccc(C#Cc3ccccc3)cc2[C@@H](N)[C@@H]1O (relative stereo)
44 | 74 to 81 | CCCCCCCCCc1ccc(Oc2cccc(C#N)c2C#N)cc1
45 | 110 to 111 | CCCCCCCCCCCCCCCCCCOc1cc(OCCCOc2ccc(S(C)(=O)=O)cc2)cc(C(=O)O)c1
46 | 230 to 231 | COc1ccc(CN2CC(=O)Nc3cccc(Cl)c3C2=O)c(OC)c1
47 | 209 to 210 | COc1ccncc1NC(=O)c1c[nH]c2c1C(=O)CCC2
48 | 156 to 158 | CC[C@H](C1CC1)n1cc(Cl)nc(N2CCc3cc(OC)cc(C)c32)c1=O
49 | 164 to 165 | CC(C)(C)c1cc(C2SCC(=O)N2CCC(=O)O)cc(C(C)(C)C)c1O (configuration not stated)
50 | 58 to 59 | COC(=O)c1ccc(OCc2ccccc2)c(OC2CCCC2)c1

Row | melting point [°C] | SMILES
51 | 129 to 133 | CCCCCCCCCCCCCCCC(=O)Nc1cc(NC(=O)CCCCCCCCCCCCCCC)cc(C(=O)N(CC(=O)O)CC(=O)O)c1
52 | 184 to 188 | CCNC(=O)NC1CCCc2sccc21 (configuration not stated)
53 | 243 to 246 | COc1cc(Nc2nc3c(s2)CCCC3c2ccccc2)ccc1C(N)=O (configuration not stated)
54 | 201 to 203 | N#Cc1ccccc1Oc1ccc(-c2cn(C3CCOC3)c3ncnc(N)c23)cc1 (configuration not stated)
55 | 113 to 115 | Cn1nc(-c2ccc(Cl)cc2)n(C)c1=S
56 | 330 to 332 | O=C(Nc1nnn[nH]1)c1cnc2sc3ccccc3n2c1=O
57 | 188 to 192 | O=C(O)C(=O)c1ccc(OCC(=O)N2CCN(c3ccccc3)CC2)cc1
58 | 110 to 112 | COC(=O)CS(=O)(=O)N1CC=C(c2ccc(Br)c(C)c2)CC1
59 | 75 to 80 | CC(=O)NC1C(C)(C)c2ccc(CCN3CCN(c4nsc5ccccc45)CC3)cc2C1(C)C (configuration not stated)
60 | 185 | COC(=O)C1CC(O)CN1C(=O)c1ccc2c(c1)OCCO2 (configuration not stated)
61 | 187 | COc1ccc(C(=O)c2cc3c(c(Cl)c2Cl)OC(C(=O)O)C3)cc1 (configuration not stated)
62 | 76 to 77 | CC(C)Cc1ccc(-c2ccccc2C(C)C(=O)O)cc1 (configuration not stated)
63 | 131 | CCC(=O)NNC(=O)c1ccncc1
64 | 139 to 140 | CN1C(=O)C(Br)(Br)CC1c1cncc(Br)c1 (configuration not stated)
65 | 122 to 125 | C=CCOc1ccccc1OCC(O)CN1CCC(N2CCCNC2=O)CC1 (configuration not stated)
66 | 85 to 87 | Clc1ccc2c(Cl)c3c(nc2c1)CCCC3
67 | 166 to 168 | NS(=O)(=O)Oc1ccc(-c2ccccc2)cc1
68 | 110 to 112 | O=S(=O)(Nc1cccc(F)c1)c1cc(S(=O)(=O)Nc2cccc(F)c2)c2cc(O)ccc2c1
69 | 198 to 199 | O=C(NNc1ccc(NC(=S)Nc2ccccc2)cc1)c1ccc(Cl)cc1
70 | 164 to 165 | COc1cccc(Cl)c1CC(=O)O
71 | 265 to 270 | COCCOc1cc2c(Nc3ccc(Sc4nccn4C)c(Cl)c3)c(C#N)cnc2cc1F
72 | 167 to 168 | CC1CC2C3CCC4=CC(=O)CCC4(C)C3=CCC2(C)C1(O)C(=O)CO (configuration not stated)
73 | 109 to 111 | CC(C=CCO)Oc1ccc(Oc2cnc3cc(F)ccc3n2)cc1 (configuration not stated)
74 | 46 | CCCCCCCCCCCCOc1ccccc1O
75 | 176 to 177 | COc1ccc2c(c1)Cc1nnc(OC)n1C=C2

Row | melting point [°C] | SMILES
76 | > 275 | Cc1ccc(C)c(CNc2cccc(S(=O)(=O)O)c2)c1
77 | 210 to 212 | CC(C)(C)OC(=O)C(C1NC(C(=O)O)C2(CCSCC2)S1)N1C(=O)c2ccccc2C1=O (configuration not stated)
78 | 164 to 165 | COc1ccc([C@@H]2CN(C)CC[C@@H]2NC(=O)c2ccccc2)cc1 (relative stereo)
79 | 206 to 207 | Cc1cc(C)c(C(O)c2cc(-n3ccnc3)ccc2Cl)c(C)c1 (configuration not stated)
80 | 113 to 135 | C=CS(=O)CCNC(=O)NC(=O)CCCl (configuration not stated)
81 | 242 to 243 | COc1cc(C(=O)O)ccc1CC(=O)Nc1cccc(/C=C/c2nc(C3CCC3)cs2)c1
82 | 249 to 251 | O=C(Nc1cccc2c(Sc3ncc[nH]3)c(Br)cnc12)c1c(Cl)cccc1Cl
83 | 126 to 129 | COc1ccc(Oc2cnccc2N)c2ccccc12
84 | 107 to 108 | Cc1ccc(S(=O)(=O)NCCCCOc2ccc(C#N)cc2)cc1
85 | 253 to 255 | O=S(=O)(/C=C/c1ccc(I)cc1)CS(=O)(=O)/C=C/c1ccc(I)cc1
86 | 109 to 112 | CCc1nc2c(cnn2CC)c(NC2CCOCC2)c1CNC(=O)c1cccc(C(=O)NCc2cc(Cl)cc(Br)c2)c1
87 | 127 to 129 | CCCCCCCCCCNC(=O)[C@@H]1C[C@H]1c1ccc([N+](=O)[O-])cc1 (relative stereo)
88 | 105 to 106 | CCCCc1cc2cc(NS(C)(=O)=O)ccc2o1
89 | 160 to 162 | CN1C(=O)CC[C@]2(C)c3ccc(-c4ncccn4)cc3CC[C@@H]12
90 | 46 to 48 | CC1CN(C2=Nc3ccccc3Oc3ccccc32)C(C)CN1 (configuration not stated)
91 | 90 | CCOC(=O)c1c(Nc2ccccc2N)c(C)cn1C
92 | 70 to 72 | COC1(c2cc(F)cc(OCc3nc(-c4ccc(F)cc4)c(-c4ccc(S(N)(=O)=O)cc4)o3)c2)CCOCC1
93 | 60 to 61 | O=C/C=C/c1ccc(C(F)(F)F)cc1
94 | 298 to 304 | CC1(C)CC(N(c2nc(F)nc(N(C3CC(C)(C)NC(C)(C)C3)C3CC(C)(C)NC(C)(C)C3)n2)C2CC(C)(C)NC(C)(C)C2)CC(C)(C)N1
95 | 190 to 191 | COC1(NC(=O)c2ccccc2)CC1
96 | 222 to 225 | C[C@H](N)C(=O)NCc1cccc(Nc2n[nH]c3ncnc(Nc4cccc(Cl)c4)c23)c1
97 | 97 | CN1CCNC1=C(Br)[N+](=O)[O-]
98 | 161 | O=C(O)CCCc1cc2nc(C(F)(F)F)ccc2n1S(=O)(=O)c1ccc2c(c1)OCO2
99 | 140 to 141 | O=C(NCc1cccs1)C12CC3CC(CC(O)(C3)C1)C2
100 | 324 | Cc1cc(-c2cc(C(F)(F)F)n3ncc(-c4nc(-c5ccc(S(N)(=O)=O)s5)no4)c3n2)ccc1C(F)(F)F

Row | SMILES | melting point [°C]
101 | Cc1cc(C)c2cc(C3CCNCC3)sc2c1 | 83 to 88
102 | COc1cc2[nH]c(=O)n(-c3ccccc3C)c(=O)c2cc1OC | 282 to 284
